From US20090047246A1, “NOVEL INHIBITORS OF HEPATITIS C VIRUS REPLICATION” (InterMune, Inc., priority 2007, published 2009)

These compounds were tested against T1, HCV NS3 helicase (Hepatitis C virus genotype 1b, UniProt P26663) (assay: HCV Helicase Prompt FRET Assay (Example A)). Settings: HCV NS3 helicase; tables do not say whether Example A or Example B assay; read-out: IC50 Activity.
T1 construct: full-length NS3 (1-631), purified at Array BioPharma
T1 sequence (P26663 1027-1657): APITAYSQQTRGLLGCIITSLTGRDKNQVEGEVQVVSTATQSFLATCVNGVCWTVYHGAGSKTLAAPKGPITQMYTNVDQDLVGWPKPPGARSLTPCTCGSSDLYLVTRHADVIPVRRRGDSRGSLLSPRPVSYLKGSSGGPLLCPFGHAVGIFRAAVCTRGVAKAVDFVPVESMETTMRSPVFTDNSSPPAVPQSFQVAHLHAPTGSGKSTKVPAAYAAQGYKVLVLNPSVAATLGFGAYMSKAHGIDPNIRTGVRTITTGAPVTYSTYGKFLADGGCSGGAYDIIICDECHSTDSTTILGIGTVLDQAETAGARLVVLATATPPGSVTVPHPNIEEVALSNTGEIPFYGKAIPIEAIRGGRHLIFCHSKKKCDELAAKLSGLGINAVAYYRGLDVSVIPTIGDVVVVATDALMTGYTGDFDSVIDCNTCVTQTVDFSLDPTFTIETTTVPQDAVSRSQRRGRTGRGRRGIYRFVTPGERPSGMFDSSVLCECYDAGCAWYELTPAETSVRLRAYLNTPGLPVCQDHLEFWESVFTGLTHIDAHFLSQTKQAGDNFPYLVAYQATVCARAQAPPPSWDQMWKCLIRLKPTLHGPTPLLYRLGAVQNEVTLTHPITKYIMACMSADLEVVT
Assay type: biochemical
Procedure: Test compounds were diluted to 2.5 mM by adding 6 uL of a 10 mM solution of the compound to 18 uL of DMSO in a 384-well Costar polypropylene plate. Serial dilutions (2.5×) were performed in the plate using DMSO as the diluent. 1 ul of solution was transferred from each well to a new 384-well Costar polypropylene plate.
A 2× mixture was prepared containing 100 nM helicase substrate, 500 nM helicase capture strand (CS), and 600 μM ATP by diluting stock solutions with assay buffer consisting of 25 mM MOPS, pH 7.0, and 1.5 mM MgCl2, 0.005% (v/v) Triton X-100. Stock helicase substrate was prepared by annealing a FAM-labeled oligonucleotide to a BHQ-1 labeled oligonucleotide, which were both custom synthesized and HPLC-purified at Biosearch Technologies. The FAM-labeled and BHQ-labeled oligonucleotide had the following sequences:
The helicase capture strand was custom synthesized and purified at Integrated DNA Technologies. The helicase capture strand had the following sequence:
The ATP solution was prepared in MilliQ water, pH adjusted to approximately 7 with NaOH. ATP powder was obtained from Sigma (A-7699). The concentration was determined via A260 (ext. coeff=15,400 M^−1cm^−1).
11.5 μL of assay buffer was added to all wells of the plate containing luL of test compound. 5 μL of the Compound/assay buffer mixture was added to a black polystyrene 384-well Proxiplate. A 4× Enzyme solution was prepared by diluting enzyme stock containing full-length NS3 (1-631), purified at Array BioPharma, with assay buffer. 5 μL of the 4× Enzyme solution was added to the Proxiplate and incubated for 5 minutes (for control wells lacking enzyme, assay buffer was used instead). 10 μL of 2× substrate/CS/ATP mixture was then added to all wells of Proxiplate. The final assay conditions included 50 nM Substrate, 250 nM Capture Strand, 300 μM ATP, 5 or 6 nM Enzyme, and 2% (v/v) DMSO. The reaction proceeded for 70 cycles (˜30 min.) on an Envision at room temperature. The plate was read using the Envision (top mirror=FITC; Excitation filter=FITC 485; Emission filter=FITC 535). The fluorescence intensity was recorded for a total of 30 minutes. The initial rates of the reactions was calculated and used to calculate IC50 values. The IC50 curve fitting was performed using either a 4-parameter or 5-parameter logistic equation.
Compound `O=C(O)Cc1c(C(=O)c2cccc(-c3ccnc(Cl)c3)c2)[nH]c2ccccc12` [Example 238] has an IC50 of 10 to 50 µM.
With `O=C(O)Cc1c(C(=O)c2cccc(-c3ccc(Cl)cc3Cl)c2)[nH]c2ccccc12` [Example 239] the IC50 was under 10 µM.
In the case of `O=C(O)Cc1c(C(=O)c2cccc(-c3ccc(Cl)c(Cl)c3)c2)[nH]c2ccccc12` [Example 240], the IC50 is reported as under 10 µM.
With `O=C(O)Cc1c(C(=O)c2cccc(-c3cccc(Cl)c3Cl)c2)oc2ccccc12` [Example 241] the IC50 was under 10 µM.
For `O=C(O)Cc1c(C(=O)c2cccc(-c3ccc(Cl)cc3Cl)c2)oc2ccccc12` [Example 242], the IC50 was under 10 µM.
For `O=C(O)Cc1c(C(=O)c2cccc(-c3ccc(Cl)c(Cl)c3)c2)oc2ccccc12` [Example 243], the IC50 was under 10 µM.
`O=C(O)Cc1c(C(=O)c2cccc(-c3cc(Cl)cc(Cl)c3)c2)oc2ccccc12` [Example 244] was tested, and the IC50 was under 10 µM.
`CC(C)c1cccc(-c2cccc(C(=O)c3oc4ccccc4c3CC(=O)O)c2)c1` [Example 245] was tested, and the IC50 was under 10 µM.
`O=C(O)Cc1c(C(=O)c2ccc(-c3ccncc3)cc2)[nH]c2ccccc12` [Example 247] gave an IC50 of 10 to 50 µM.
`O=C(O)Cc1c(C(=O)c2ccc(Br)cc2)n(Cc2ccccc2)c2ccccc12` [Example 248] was tested, and the IC50 was 10 to 50 µM.
For `O=C(O)Cc1c(C(=O)Cc2ccc(-c3ccccc3)cc2)[nH]c2ccccc12` [Example 249], the IC50 was 10 to 50 µM.
`Cn1c(C(=O)Cc2ccc(-c3ccccc3)cc2)c(CC(=O)O)c2ccccc21` [Example 250] was tested, and the IC50 was 10 to 50 µM.
Compound `O=C(O)Cc1c(C(=O)C(Cc2ccccc2)c2ccc(-c3ccccc3)cc2)[nH]c2ccccc12` (stereo not shown) [Example 251] has an IC50 of under 10 µM.
`O=C(O)Cc1c(C(=O)c2ccc(-c3ccc(Cl)cc3)cc2)[nH]c2ccccc12` [Example 252] gave an IC50 of 10 to 50 µM.
For `O=C(O)Cc1c(C(=O)c2ccc(-c3cccc(Cl)c3)cc2)[nH]c2ccccc12` [Example 253], the IC50 was 10 to 50 µM.
For `O=C(O)Cc1c(C(=O)c2ccc(-c3ccccc3Cl)cc2)[nH]c2ccccc12` [Example 254], the IC50 was under 10 µM.
With `O=C(O)Cc1c(C(=O)c2ccc(-c3ccccc3Cl)cc2)[nH]c2ccccc12` [Example 255] the IC50 was 10 to 50 µM.
`Cc1ccc(-c2ccc(C(=O)c3[nH]c4ccccc4c3CC(=O)O)cc2)cc1` [Example 256] showed an IC50 of 10 to 50 µM.
`O=C(O)Cc1c(C(=O)c2ccc(-c3ccc(Cl)c(Cl)c3)cc2)[nH]c2ccccc12` [Example 257] showed an IC50 of under 10 µM.
Compound `O=C(O)Cc1c(C(=O)Cc2ccccc2)n(Cc2ccccc2)c2ccccc12` [Example 258] has an IC50 of 10 to 50 µM.
In the case of `O=C(O)Cc1c(C(=O)Cc2ccc(F)cc2)n(Cc2ccccc2)c2ccccc12` [Example 259], the IC50 is reported as 10 to 50 µM.
`O=C(O)Cc1c(C(=O)Cc2ccccc2Br)n(Cc2ccccc2)c2ccccc12` [Example 260] showed an IC50 of under 10 µM.
Work on `Cc1cc(-c2ccc(C(=O)c3[nH]c4ccccc4c3CC(=O)O)cc2)ccc1Cl` [Example 261] yielded an IC50 of under 10 µM.
Compound `Cc1ccc(-c2ccc(C(=O)c3[nH]c4ccccc4c3CC(=O)O)cc2)cc1C` [Example 262] has an IC50 of 10 to 50 µM.
In the case of `NC(=O)c1cccc(-c2ccc(C(=O)c3[nH]c4ccccc4c3CC(=O)O)cc2)c1` [Example 263], the IC50 is reported as 10 to 50 µM.
Work on `O=C(O)Cc1c(C(=O)c2ccc(-c3cccc(CO)c3)cc2)[nH]c2ccccc12` [Example 264] yielded an IC50 of 10 to 50 µM.
`NC(=O)c1ccc(-c2ccc(C(=O)c3[nH]c4ccccc4c3CC(=O)O)cc2)cc1` [Example 265] was tested, and the IC50 was 10 to 50 µM.
In the case of `O=C(O)Cc1c(C(=O)c2ccc(-c3ccc(C(=O)O)cc3)cc2)[nH]c2ccccc12` [Example 266], the IC50 is reported as 10 to 50 µM.
For `Cc1ccc(-c2ccc(C(=O)c3[nH]c4ccccc4c3CC(=O)O)cc2)cc1Cl` [Example 267], the IC50 was under 10 µM.
With `CC(C)(C)OC(=O)NCc1cccc(-c2ccc(C(=O)c3[nH]c4ccccc4c3CC(=O)O)cc2)c1` [Example 268] the IC50 was under 10 µM.
In the case of `O=C(O)Cc1c(C(=O)c2ccc(-c3ccccc3C(F)(F)F)cc2)[nH]c2ccccc12` [Example 269], the IC50 is reported as 10 to 50 µM.
In the case of `O=C(O)Cc1c(C(=O)c2ccc(-c3ccccc3Br)cc2)[nH]c2ccccc12` [Example 270], the IC50 is reported as 10 to 50 µM.
For `CSc1ccccc1-c1ccc(C(=O)c2[nH]c3ccccc3c2CC(=O)O)cc1` [Example 271], the IC50 was 10 to 50 µM.
Compound `O=C(O)Cc1c(C(=O)c2ccc(-c3ccc(Cl)cc3Cl)cc2)[nH]c2ccccc12` [Example 272] has an IC50 of under 10 µM.
In the case of `O=C(O)Cc1c(C(=O)c2ccc(-c3c(Cl)cccc3Cl)cc2)[nH]c2ccccc12` [Example 273], the IC50 is reported as 10 to 50 µM.
`O=C(O)Cc1c(C(=O)c2ccc(-c3cccc(Cl)c3Cl)cc2)[nH]c2ccccc12` [Example 274] showed an IC50 of under 10 µM.
With `O=C(O)Cc1c(C(=O)c2ccc(-c3ccccc3Cl)cc2)[nH]c2ccc(Br)cc12` [Example 275] the IC50 was under 10 µM.
Compound `Cn1c(Cc2ccc(-c3ccccc3)cc2)c(CC(=O)O)c2ccccc21` [Example 276] has an IC50 of 10 to 50 µM.
With `O=C(O)Cc1c(Cc2ccc(-c3ccccc3)cc2)n(Cc2ccccc2)c2ccccc12` [Example 277] the IC50 was 10 to 50 µM.
Compound `O=C(O)Cc1c(Cc2ccc(-c3ccccc3)cc2)n(CC2CC2)c2ccccc12` [Example 278] has an IC50 of under 10 µM.
`O=C(O)Cc1c(Cc2ccc(-c3ccccc3Cl)cc2)[nH]c2ccccc12` [Example 279] showed an IC50 of under 10 µM.
Work on `O=C(O)Cc1c(Cc2ccc(-c3ccc(Cl)c(Cl)c3)cc2)[nH]c2ccccc12` [Example 280] yielded an IC50 of under 10 µM.
Compound `Cc1cc(-c2ccc(Cc3[nH]c4ccccc4c3CC(=O)O)cc2)ccc1Cl` [Example 281] has an IC50 of under 10 µM.
Work on `Cc1ccc(-c2ccc(Cc3[nH]c4ccccc4c3CC(=O)O)cc2)cc1C` [Example 282] yielded an IC50 of under 10 µM.
With `Cc1ccccc1-c1ccc(Cc2[nH]c3ccccc3c2CC(=O)O)cc1` [Example 283] the IC50 was 10 to 50 µM.
Work on `COc1ccccc1-c1ccc(Cc2[nH]c3ccccc3c2CC(=O)O)cc1` [Example 284] yielded an IC50 of 10 to 50 µM.
In the case of `O=C(O)Cc1c(Cc2ccc(-c3ccccc3C(F)(F)F)cc2)[nH]c2ccccc12` [Example 285], the IC50 is reported as under 10 µM.
With `O=C(O)Cc1c(Cc2ccc(-c3ccccc3F)cc2)[nH]c2ccccc12` [Example 286] the IC50 was 10 to 50 µM.
With `O=C(O)Cc1c(Cc2ccc(-c3ccccc3Br)cc2)[nH]c2ccccc12` [Example 287] the IC50 was under 10 µM.
In the case of `CSc1ccccc1-c1ccc(Cc2[nH]c3ccccc3c2CC(=O)O)cc1` [Example 288], the IC50 is reported as under 10 µM.
Compound `O=C(O)Cc1c(Cc2ccc(-c3ccc(Cl)cc3Cl)cc2)[nH]c2ccccc12` [Example 289] has an IC50 of under 10 µM.
With `O=C(O)Cc1c(Cc2ccc(-c3cccc(Cl)c3Cl)cc2)[nH]c2ccccc12` [Example 290] the IC50 was under 10 µM.
With `Cc1ccc(-c2ccc(Cc3[nH]c4ccccc4c3CC(=O)O)cc2)cc1Cl` [Example 291] the IC50 was under 10 µM.
`CC(=O)Nc1ccc(-c2ccc(Cc3[nH]c4ccccc4c3CC(=O)O)cc2)cc1` [Example 292] showed an IC50 of 10 to 50 µM.
In the case of `CC(=O)Nc1cccc(-c2ccc(Cc3[nH]c4ccccc4c3CC(=O)O)cc2)c1` [Example 293], the IC50 is reported as 10 to 50 µM.
For `O=C(O)Cc1c(Cc2ccc(-c3ccccc3Cl)cc2)[nH]c2ccc(Br)cc12` [Example 294], the IC50 was under 10 µM.
Compound `O=C(O)Cc1c(Cc2ccc(-c3ccccc3)cc2)[nH]c2ccccc12` [Example 295] has an IC50 of under 10 µM.
Work on `O=C(O)Cc1c(Cc2cccc(-c3cccc(C(F)(F)F)c3)c2)[nH]c2ccccc12` [Example 296] yielded an IC50 of under 10 µM.
In the case of `CSc1cccc(-c2cccc(Cc3[nH]c4ccccc4c3CC(=O)O)c2)c1` [Example 297], the IC50 is reported as under 10 µM.
Compound `COc1cccc(-c2cccc(Cc3[nH]c4ccccc4c3CC(=O)O)c2)c1` [Example 298] has an IC50 of under 10 µM.
With `COc1ccc(-c2cccc(Cc3[nH]c4ccccc4c3CC(=O)O)c2)cc1` [Example 299] the IC50 was under 10 µM.
With `O=C(O)Cc1c(Cc2cccc(-c3cccc(CO)c3)c2)[nH]c2ccccc12` [Example 300] the IC50 was under 10 µM.
`NC(=O)c1cccc(-c2cccc(Cc3[nH]c4ccccc4c3CC(=O)O)c2)c1` [Example 301] gave an IC50 of 10 to 50 µM.
With `CC(C)c1cccc(-c2cccc(Cc3[nH]c4ccccc4c3CC(=O)O)c2)c1` [Example 302] the IC50 was under 10 µM.
Compound `O=C(O)Cc1c(Cc2cccc(-c3cccc(Cl)c3Cl)c2)[nH]c2ccccc12` [Example 303] has an IC50 of under 10 µM.
`O=C(O)Cc1c(Cc2ccc(-c3ccccc3)cc2)oc2ccccc12` [Example 305] gave an IC50 of 10 to 50 µM.
Work on `O=C(O)Cc1c(Cc2ccc(-c3ccccc3)cc2)sc2ccccc12` [Example 306] yielded an IC50 of under 10 µM.
`O=C(O)Cc1c(Cc2cccc(-c3cccc(Cl)c3Cl)c2)oc2ccccc12` [Example 307] gave an IC50 of under 10 µM.
Compound `O=C(O)Cc1c(Cc2cccc(-c3ccc(Cl)cc3Cl)c2)oc2ccccc12` [Example 308] has an IC50 of under 10 µM.
`O=C(O)Cc1c(Cc2cccc(-c3ccc(Cl)c(Cl)c3)c2)oc2ccccc12` [Example 309] showed an IC50 of under 10 µM.
